Laboratory results as given in paper PMC10533516, “The Dictyostelium discoideum FimA protein, unlike yeast and plant fimbrins, is regulated by calcium similar to mammalian plastins” (Scientific Reports, 2023).
Blank lines part the entries; values can stand above or below the molecule they belong to.

Legend:
[1] = biological target: T1, FimA-EF-N81ter (Dictyostelium discoideum, UniProt P54680); test: 1H, […]-HSQC NMR titration; type: binding
T1 construct: EF-hand headpiece domain truncated before switch helix H5 (N81ter), residues 1-80; N-terminal 6His-tag with TEV site, tag cleaved; E. coli BL21(DE3)
T1 sequence (P54680 1-80): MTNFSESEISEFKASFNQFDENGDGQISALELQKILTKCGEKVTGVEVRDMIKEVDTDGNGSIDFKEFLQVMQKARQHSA

[2] = biological target: T2, FimA-EF (Dictyostelium discoideum, UniProt P54680); test: 1H, […]-HSQC NMR titration (chemical shift changes); type: binding; settings: 25 °C, pH 7.0; Ca2+-bound; site of switch helix H5
T2 construct: EF-hand headpiece domain with switch helix H5, residues 1-93; pET15b, N-terminal 6His-tag with TEV site, tag cleaved; E. coli BL21(DE3)
T2 sequence (P54680 1-93): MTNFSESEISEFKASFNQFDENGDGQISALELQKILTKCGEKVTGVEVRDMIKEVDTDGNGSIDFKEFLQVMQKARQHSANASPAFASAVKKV

[3] = biological target: L-plastin H5 peptide H5 (Homo sapiens) (UniProt P13796); settings: cited from earlier work
[4] = biological target: T3, FimA-EF-N81ter (EF-hand domain of the Dictyostelium discoideum FimA headpiece, residues 1-80, lacking the H5 … (Dictyostelium discoideum, UniProt P54680 1-80)); test: NMR titration; 15N-labelled FimA-EF-N81ter titrated with the H5 peptide, 1H,15N-HSQC, chemical shift changes fitted, fast exchange; 25 °C, 100 mM KCl, 20 mM Bis-Tris pH 7.0, 10 mM DTT; settings: both partners purified
T3 construct: FimA (fimbrin) of Dictyostelium discoideum, UniProtKB P54680, headpiece truncated by a stop codon at N81: residues 1-80, omits the entire H5 region; Made by site-directed mutagenesis of the synthetic FimA 1-93 gene in pET15b (NdeI/XhoI) with an N-terminal 6His-tag and a TEV site; The methods say the last 12 amino acids are deleted, but 1-80 of 1-93 removes 13; also called …
T3 sequence (looked up): T1 sequence (P54680 1-80)

- Kd [1]: 3.8 µM
Molecule: NCCCCCCNS(=O)(=O)c1cccc2c(Cl)cccc12 [W7]
- 1H,15N-HSQC NMR titration (chemical shift changes) [2]: Both TFP and W7 caused significant chemical shift changes in the HSQC spectrum of FimA-EF

Molecule: L-plastin EF-hand domain (from UniProt P13796)
- Kd [3]: 3.5 µM

- Kd [1]: 1.5 µM
Molecule: CN1CCN(CCCN2c3ccccc3Sc3ccc(C(F)(F)F)cc32)CC1 [TFP]
- 1H,15N-HSQC NMR titration (chemical shift changes) [2]: Both TFP and W7 caused significant chemical shift changes in the HSQC spectrum of FimA-EF

B1: H5 peptide (14-residue synthetic peptide encompassing the H5 / putative regulatory switch-helix region of FimA) (peptide)
peptide: Ac-SANASPAFASAVKK-NH2
notes: Stretch of FimA of Dictyostelium discoideum (UniProtKB P54680) encompassing the putative regulatory domain (H5); Limits worked out from the printed positions N81, P84 and F86; also called synthetic H5 peptide; source: synthetic peptide, obtained from Genscript (purity over 95%)
- Kd [4]: 300 µM
